Results from patent US7652029B2, “Therapeutic compound and treatments” (priority 2004, dated 2010).

Assays:
[1] = system: MOLT-4; experiment: NCI multiple cell line test (SRB); assay type: cell-based, human; conditions: MOLT-4 (Leukemia), 48 h
[2] = system: NCI-H23; experiment: NCI multiple cell line test (SRB); assay type: cell-based, human; conditions: NCI-H23 (Non-Small Cell Lung Cancer), 48 h
[3] = system: NCI-H522; experiment: NCI multiple cell line test (SRB); assay type: cell-based, human; conditions: NCI-H522 (Non-Small Cell Lung Cancer), 48 h
[4] = system: HCT-15; experiment: NCI multiple cell line test (SRB); assay type: cell-based, human; conditions: HCT-15 (Colon Cancer), 48 h
[5] = system: SW-620; experiment: NCI multiple cell line test (SRB); assay type: cell-based, human; conditions: SW-620 (Colon Cancer), 48 h
[6] = system: SNB-19; experiment: NCI multiple cell line test (SRB); assay type: cell-based, human; conditions: SNB-19 (CNS Cancer), 48 h
[7] = system: LOX IMVI; experiment: NCI multiple cell line test (SRB); assay type: cell-based, human; conditions: LOX IMVI (Melanoma), 48 h
[8] = system: SK-MEL-2; experiment: NCI multiple cell line test (SRB); assay type: cell-based, human; conditions: SK-MEL-2 (Melanoma), 48 h
[9] = system: UACC-257; experiment: NCI multiple cell line test (SRB); assay type: cell-based, human; conditions: UACC-257 (Melanoma), 48 h
[10] = system: TK-10; experiment: NCI multiple cell line test (SRB); assay type: cell-based, human; conditions: TK-10 (Renal Cancer), 48 h
[11] = system: HS 578T; experiment: NCI multiple cell line test (SRB); assay type: cell-based, human; conditions: HS 578T (Breast Cancer), 48 h
[12] = system: MDA-MB-435; experiment: NCI multiple cell line test (SRB); assay type: cell-based, human; conditions: MDA-MB-435 (Breast Cancer), 48 h
[13] = system: BT-549; experiment: NCI multiple cell line test (SRB); assay type: cell-based, human; conditions: BT-549 (Breast Cancer), 48 h
[14] = system: T-47D; experiment: NCI multiple cell line test (SRB); assay type: cell-based, human; conditions: T-47D (Breast Cancer), 48 h
[15] = system: MCF-7 cells; experiment: Growth response, MTT dye conversion assay; assay type: cell-based, human; conditions: FIG. 7; 48 hours; compared with cisplatin
[16] = system: SCK cells; experiment: Growth response, MTT dye conversion assay; assay type: cell-based, murine; conditions: FIG. 8; 48 hours; compared with cisplatin
[17] = system: Lewis murine lung cells; experiment: Growth response, MTT dye conversion assay; assay type: cell-based; conditions: FIG. 9; mouse lung cell line
[18] = Homo sapiens, read-out: −log10GI50 (converted)

SMILES: COC(=O)C1=C(C(=O)OC)SC2(S1)C(C(=O)OC)=C(C(=O)OC)SC1=C2c2cccc(OC)c2N(C(=O)CN2C(=O)CCC2=O)C1(C)C [MT477]
- IC50 [1, 18]: 1020 nM
- −log10LC50 [1]: 4.68 molar
- −log10TGI [1]: 5.64 molar
- IC50 [2, 18]: 955 nM
- −log10LC50 [2]: 5.42 molar
- −log10TGI [2]: 5.72 molar
- IC50 [3, 18]: 9330 nM
- −log10LC50 [3]: * (effect not reached at maximum dose of 0.05 millimolar)
- −log10TGI [3]: 4.31 molar
- −log10LC50 [4]: 4.69 molar
- −log10TGI [4]: 5.27 molar
- IC50 [4, 18]: 1480 nM
- IC50 [5, 18]: 1660 nM
- −log10LC50 [5]: * (effect not reached at maximum dose of 0.05 millimolar)
- −log10TGI [5]: * (effect not reached at maximum dose of 0.05 millimolar)
- IC50 [6, 18]: 7940 nM
- −log10LC50 [6]: 4.46 molar
- −log10TGI [6]: 4.78 molar
- IC50 [7, 18]: 851 nM
- −log10LC50 [7]: 5.52 molar
- −log10TGI [7]: 5.79 molar
- IC50 [8, 18]: 4680 nM
- −log10LC50 [8]: * (effect not reached at maximum dose of 0.05 millimolar)
- −log10TGI [8]: 4.41 molar
- IC50 [9, 18]: 1480 nM
- −log10LC50 [9]: 4.55 molar
- −log10TGI [9]: 5.53 molar
- IC50 [10, 18]: 1580 nM
- −log10LC50 [10]: 4.75 molar
- −log10TGI [10]: 5.34 molar
- −log10LC50 [11]: * (effect not reached at maximum dose of 0.05 millimolar)
- −log10TGI [11]: 4.68 molar
- IC50 [11, 18]: 6610 nM
- IC50 [12, 18]: 1700 nM
- −log10LC50 [12]: 4.58 molar
- −log10TGI [12]: 5.27 molar
- −log10LC50 [13]: * (effect not reached at maximum dose of 0.05 millimolar)
- −log10TGI [13]: 4.86 molar
- IC50 [13, 18]: 3550 nM
- IC50 ([14]; Homo sapiens, T47D, read-out: −log10GI50 (converted)): 1510 nM
- −log10LC50 [14]: * (effect not reached at maximum dose of 0.05 millimolar)
- −log10TGI [14]: 5.40 molar
- growth response [15]: more effective than cisplatin
- growth response [16]: more effective than cisplatin
- growth response [17]: effective in human and mouse cell lung lines
